Experimental data reported in article PMC8177795 (Cancer Science, 2021).
“Also recorded” adds a separate entry of the source.

How the values were obtained:
Safety and tolerability = type: in vivo, Japanese patients; conditions: for Overall safety and tolerability: adult Japanese patients with r/r B‐cell malignancies
[1] = Plasma pharmacokinetics of acalabrutinib and ACP‐5862; type: in vivo, Japanese patients
[2] = test system: relapsed/refractory (r/r) B‐cell malignancies; experiment: Antitumor activity; type: in vivo, Japanese patients
[3] = r/r CLL; cited from earlier work
r/r MCL = conditions: cited from earlier work
[4] = multiple dose 100 mg BID, day 8, part 1
[5] = multiple dose 100 mg BID, day 8, part 1, fasting
[6] = CLL/SLL cohort (n = 9), Part 1 + Part 2
[7] = MCL cohort (n = 13), Part 1 + Part 2

## CC#CC(=O)N1CCC[C@H]1c1nc(-c2ccc(C(=O)Nc3ccccn3)cc2)c2c(N)nccn12 [acalabrutinib]
Safety and tolerability; 100 mg BID
  Overall safety and tolerability: safe and well‐tolerated
Safety and tolerability; 100 mg BID, listed as Acalabrutinib
  Overall safety and tolerability: generally safe and well‐tolerated
Safety and tolerability; 100 mg BID, part 1
  Dose‐limiting toxicities (DLTs): No DLTs were observed
Safety and tolerability; Part 1 (N = 6)
  AE of clinical interest: Anemia: 2 (33.3) n (%)
  AE of clinical interest: Atrial fibrillation: 0 n (%)
  AE of clinical interest: Cardiac events: 0 n (%)
  AE of clinical interest: Hemorrhage: 0 n (%)
  AE of clinical interest: Hepatotoxicity: 0 n (%)
  AE of clinical interest: Infections: 6 (100.0) n (%)
  AE of clinical interest: Interstitial lung disease/pneumonitis: 1 (16.7) n (%)
  AE of clinical interest: Leukopenia: 1 (16.7) n (%)
  AE of clinical interest: Neutropenia: 1 (16.7) n (%)
  AE of clinical interest: Other hemorrhage: 0 n (%)
  AE of clinical interest: Other leukopenia: 0 n (%)
  AE of clinical interest: Second primary malignancies (excl. nonmelanoma skin cancer): 1 (16.7) n (%)
  AE of clinical interest: Second primary malignancy: 1 (16.7) n (%)
  AE of clinical interest: Thrombocytopenia: 1 (16.7) n (%)
  AE of clinical interest: Tumor lysis syndrome: 0 n (%)
  Patients with any AE of clinical interest: 6 (100.0) n (%)
  Patients with any SAE: 3 (50.0) n (%)
  SAE: Abdominal pain upper: 0 n (%)
  SAE: Anemia: 1 (16.7) n (%)
  SAE: Blood and lymphatic system disorders: 1 (16.7) n (%)
  SAE: Colon cancer: 1 (16.7) n (%)
  SAE: Gastrointestinal disorders: 0 n (%)
  SAE: Infections and infestations: 1 (16.7) n (%)
  SAE: Neoplasms benign, malignant, and unspecified (incl. cysts and polyps): 1 (16.7) n (%)
  SAE: Pneumonia: 1 (16.7) n (%)
Safety and tolerability; Total (N = 25)
  AE of clinical interest: 95 Total number of AEs
  AE of clinical interest: Anemia: 6 (24.0) n (%)
  AE of clinical interest: Atrial fibrillation: 1 (4.0) n (%)
  AE of clinical interest: Cardiac events: 1 (4.0) n (%)
  AE of clinical interest: Hemorrhage: 8 (32.0) n (%)
  AE of clinical interest: Hepatotoxicity: 3 (12.0) n (%)
  AE of clinical interest: Infections: 16 (64.0) n (%)
  AE of clinical interest: Interstitial lung disease/pneumonitis: 1 (4.0) n (%)
  AE of clinical interest: Leukopenia: 7 (28.0) n (%)
  AE of clinical interest: Neutropenia: 6 (24.0) n (%)
  AE of clinical interest: Other hemorrhage: 8 (32.0) n (%)
  AE of clinical interest: Other leukopenia: 3 (12.0) n (%)
  AE of clinical interest: Second primary malignancies (excl. nonmelanoma skin cancer): 1 (4.0) n (%)
  AE of clinical interest: Second primary malignancy: 1 (4.0) n (%)
  AE of clinical interest: Thrombocytopenia: 5 (20.0) n (%)
  AE of clinical interest: Tumor lysis syndrome: 1 (4.0) n (%)
  Patients with any AE of clinical interest: 22 (88.0) n (%)
  Patients with any SAE: 6 (24.0) n (%)
  SAE: Abdominal pain upper: 1 (4.0) n (%)
  SAE: Anemia: 1 (4.0) n (%)
  SAE: Blood and lymphatic system disorders: 1 (4.0) n (%)
  SAE: Colon cancer: 1 (4.0) n (%)
  SAE: Gastrointestinal disorders: 1 (4.0) n (%)
  SAE: Infections and infestations: 3 (12.0 n (%)
  SAE: Neoplasms benign, malignant, and unspecified (incl. cysts and polyps): 1 (4.0) n (%)
  SAE: Pneumonia: 3 (12.0) n (%)
Safety and tolerability; all 25 treated patients
  AEs of clinical interest, patients: 88%
  AEs resulting in treatment discontinuation or death: No AEs resulted in treatment discontinuation or death; also recorded: No AEs with the outcome of death or AEs/SAEs leading to treatment discontinuation were reported
  Grade 4 AEs, patients: 20%
  Headache (any AE), patients: 32%
  Rash (any AE), patients: 28%
  SAEs related to treatment, patients: 16%
  Serious adverse events (SAEs), patients: 24%
  Treatment‐related adverse events, patients: 88%
  Treatment‐related headache, patients: 28%
  Treatment‐related purpura, patients: 24%
Safety and tolerability; r/r CLL/SLL cohort (N = 9)
  AE of clinical interest: Anemia: 2 (22.2) n (%)
  AE of clinical interest: Atrial fibrillation: 0 n (%)
  AE of clinical interest: Cardiac events: 0 n (%)
  AE of clinical interest: Hemorrhage: 4 (44.4) n (%)
  AE of clinical interest: Hepatotoxicity: 1 (11.1) n (%)
  AE of clinical interest: Infections: 6 (66.7) n (%)
  AE of clinical interest: Interstitial lung disease/pneumonitis: 0 n (%)
  AE of clinical interest: Leukopenia: 3 (33.3) n (%)
  AE of clinical interest: Neutropenia: 3 (33.3) n (%)
  AE of clinical interest: Other hemorrhage: 4 (44.4) n (%)
  AE of clinical interest: Other leukopenia: 0 n (%)
  AE of clinical interest: Second primary malignancies (excl. nonmelanoma skin cancer): 1 (11.1) n (%)
  AE of clinical interest: Second primary malignancy: 1 (11.1) n (%)
  AE of clinical interest: Thrombocytopenia: 1 (11.1) n (%)
  AE of clinical interest: Tumor lysis syndrome: 0 n (%)
  Patients with any AE of clinical interest: 8 (88.9) n (%)
  Patients with any SAE: 2 (22.2) n (%)
  SAE: Abdominal pain upper: 0 n (%)
  SAE: Anemia: 0 n (%)
  SAE: Blood and lymphatic system disorders: 0 n (%)
  SAE: Colon cancer: 1 (11.1) n (%)
  SAE: Gastrointestinal disorders: 0 n (%)
  SAE: Infections and infestations: 1 (11.1) n (%)
  SAE: Neoplasms benign, malignant, and unspecified (incl. cysts and polyps): 1 (11.1) n (%)
  SAE: Pneumonia: 1 (11.1) n (%)
Safety and tolerability; r/r MCL cohort (N = 13)
  AE of clinical interest: Anemia: 3 (23.1) n (%)
  AE of clinical interest: Atrial fibrillation: 1 (7.7) n (%)
  AE of clinical interest: Cardiac events: 1 (7.7) n (%)
  AE of clinical interest: Hemorrhage: 4 (30.8) n (%)
  AE of clinical interest: Hepatotoxicity: 2 (15.4) n (%)
  AE of clinical interest: Infections: 7 (53.8) n (%)
  AE of clinical interest: Interstitial lung disease/pneumonitis: 1 (7.7) n (%)
  AE of clinical interest: Leukopenia: 4 (30.8) n (%)
  AE of clinical interest: Neutropenia: 3 (23.1) n (%)
  AE of clinical interest: Other hemorrhage: 4 (30.8) n (%)
  AE of clinical interest: Other leukopenia: 3 (23.1) n (%)
  AE of clinical interest: Second primary malignancies (excl. nonmelanoma skin cancer): 0 n (%)
  AE of clinical interest: Second primary malignancy: 0 n (%)
  AE of clinical interest: Thrombocytopenia: 3 (23.1) n (%)
  AE of clinical interest: Tumor lysis syndrome: 1 (7.7) n (%)
  Patients with any AE of clinical interest: 11 (84.6) n (%)
  Patients with any SAE: 3 (23.1) n (%)
  SAE: Abdominal pain upper: 1 (7.7) n (%)
  SAE: Anemia: 0 n (%)
  SAE: Blood and lymphatic system disorders: 0 n (%)
  SAE: Colon cancer: 0 n (%)
  SAE: Gastrointestinal disorders: 1 (7.7) n (%)
  SAE: Infections and infestations: 2 (15.4) n (%)
  SAE: Neoplasms benign, malignant, and unspecified (incl. cysts and polyps): 0 n (%)
  SAE: Pneumonia: 2 (15.4) n (%)
[1]; after a single dose
  Coefficient of variation (CV) of Cmax: 174%
[1]; after multiple dosing
  Interpatient variability (CVs): < 30%
[1]; [4]
  RAC (extent of accumulation on multiple dosing), Amean ± SD: 1.69
  TC (time dependency of pharmacokinetics), Amean ± SD: 1.163 ± 0.4770
[1]; [5]
  CL/F (oral clearance), Amean ± SD: 84.89 ± 19.84 L/h
  t1/2, Amean ± SD: 1.795 ± 0.7404 h
[1]; multiple dose 100 mg BID, day 8, part 1, listed as Acalabrutinib
  RAC (extent of accumulation on multiple dosing), Amean ± SD: 1.694 ± 1.275
[1]; single dose 100 mg acalabrutinib, part 1, fasting
  CL/F (oral clearance), Amean ± SD: 99.54 ± 44.33 L/h
[1]; single‐ and multiple‐dose periods
  Absorption: rapidly absorbed
[2]; [6]
  CR: 0 Number (%) of patients with a response
  CRi: 2 (22) Number (%) of patients with a response
  Clinical PD: 0 Number (%) of patients with a response
  Nonresponse (total): 1 (11) Number (%) of patients with a response
  Not evaluable: 0 Number (%) of patients with a response
  ORR: 8 (89) Number (%) of patients with a response
  PD: 0 Number (%) of patients with a response
  PR: 6 (67) Number (%) of patients with a response
  PRL: 1 (11) Number (%) of patients with a response
  Stable disease: 0 Number (%) of patients with a response
[2]; CLL/SLL cohort including PRL (n = 9), Part 1 + Part 2
  ORR: 9 (100) Number (%) of patients with a response
[2]; [7]
  CR: 5 (38) Number (%) of patients with a response
  Nonresponse (total): 5 (38) Number (%) of patients with a response
  Not evaluable: 0 Number (%) of patients with a response
  ORR: 8 (62) Number (%) of patients with a response
  PD: 2 (15) Number (%) of patients with a response
  PR: 3 (23) Number (%) of patients with a response
  Stable disease: 3 (23) Number (%) of patients with a response
[2]; r/r CLL/SLL cohort (8/9 patients)
  Overall response rate (ORR): 89%
[2]; r/r CLL/SLL cohort (n = 9)
  Median progression‐free survival (PFS): not reached
[2]; r/r CLL/SLL cohort including PRL (9/9 patients)
  Overall response rate (ORR): 100%
[2]; r/r MCL cohort (8/13 patients)
  Overall response rate (ORR): 62%
[2]; r/r MCL cohort (n = 13)
  Median progression‐free survival (PFS): 7 months
[3]
  Headache, patients: 43%
r/r MCL
  Headache, patients: 38%
